# Experimental data reported in ChEMBL document CHEMBL1145817, “Conformationally constrained analogues of diacylglycerol. 19. Synthesis and protein kinase C binding affinity of diacylglycerol lactones bearing an N-hydroxylamide side chain” (J Med Chem, 2003).
# Molecular target: Protein kinase C alpha type (Homo sapiens, UniProt P17252)
# Assay: Binding affinity for Protein kinase C alpha C1a or C1b domain
row,Structure (SMILES),Ki [µM]
1,CC(C)CC(C/C=C1\CC(CO)(CN(O)C(=O)C(C)(C)C)OC1=O)CC(C)C (configuration not stated),6.79
2,CC(C)CC(C/C=C1/CC(CO)(CN(O)C(=O)C(C)(C)C)OC1=O)CC(C)C (configuration not stated),6.98
